Experimental data taken from the NIST ThermoML archive (doi:10.1016/j.fluid.2013.12.008).
Numbers after ± are expanded uncertainties.

How the values were obtained:
[1] = xn = mol fraction of the nth substance listed; conditions: 101 kPa, Liquid; for viscosity: Falling or rolling sphere viscometry; for mass density: Vibrating tube method
[2] = 101 kPa, Liquid; for viscosity: Falling or rolling sphere viscometry; for mass density: Vibrating tube method

CCn1cc[n+](C)c1.N#CN=C=[N-] [1-ethyl-3-methylimidazolium dicyanamide] + CCn1cc[n+](C)c1.N#C[C-](C#N)C#N
[1], x2 = 0
Conditions	mass density [kg/m3]	viscosity [mPa·s]
293.15 K	1104.6 ± 1.4	17.54 ± 0.41
303.15 K	1098 ± 1.4	13.11 ± 0.31
313.15 K	1091.4 ± 1.4	10.17 ± 0.24
323.15 K	1084.9 ± 1.4	8.13 ± 0.19
333.15 K	1078.5 ± 1.4	6.66 ± 0.16
343.15 K	1072.1 ± 1.3	5.58 ± 0.13
353.15 K	1065.8 ± 1.3	4.75 ± 0.11

CCn1cc[n+](C)c1.N#CN=C=[N-] [1-ethyl-3-methylimidazolium dicyanamide]
[2]
Conditions	mass density [kg/m3]	viscosity [mPa·s]
293.15 K	1104.6 ± 1.4	17.54 ± 0.41
303.15 K	1098 ± 1.4	13.11 ± 0.31
313.15 K	1091.4 ± 1.4	10.17 ± 0.24
323.15 K	1084.9 ± 1.4	8.13 ± 0.19
333.15 K	1078.5 ± 1.4	6.66 ± 0.16
343.15 K	1072.1 ± 1.3	5.58 ± 0.13
353.15 K	1065.8 ± 1.3	4.75 ± 0.11

CCn1cc[n+](C)c1.N#C[C-](C#N)C#N [1-ethyl-3-methyl-1H-imidazolium tricyanomethanide] + CCn1cc[n+](C)c1.N#CN=C=[N-]
[1]
Conditions	mass density, x1 = 0.2 [kg/m3]	mass density, x1 = 0.4 [kg/m3]	mass density, x1 = 0.6 [kg/m3]	mass density, x1 = 0.8 [kg/m3]	mass density, x1 = 1 [kg/m3]	viscosity, x1 = 0.2 [mPa·s]	viscosity, x1 = 0.4 [mPa·s]	viscosity, x1 = 0.6 [mPa·s]	viscosity, x1 = 0.8 [mPa·s]	viscosity, x1 = 1 [mPa·s]
293.15 K	1099.9 ± 1.4	1095.8 ± 1.4	1091.9 ± 1.4	1088.4 ± 1.4	1085.2 ± 1.4	17.55 ± 0.41	17.59 ± 0.41	17.6 ± 0.41	17.64 ± 0.41	17.72 ± 0.42
303.15 K	1093.2 ± 1.4	1088.9 ± 1.4	1085 ± 1.4	1081.4 ± 1.4	1078.1 ± 1.4	13.05 ± 0.31	13.02 ± 0.31	13.01 ± 0.31	12.89 ± 0.3	12.88 ± 0.3
313.15 K	1086.5 ± 1.4	1082.2 ± 1.4	1078.1 ± 1.4	1074.5 ± 1.3	1071.1 ± 1.3	10.12 ± 0.24	10.05 ± 0.24	10.02 ± 0.24	9.89 ± 0.23	9.8 ± 0.23
323.15 K	1079.9 ± 1.4	1075.5 ± 1.4	1071.3 ± 1.3	1067.6 ± 1.3	1064.1 ± 1.3	7.92 ± 0.19	7.84 ± 0.18	7.8 ± 0.18	7.77 ± 0.18	7.73 ± 0.18
333.15 K	1073.4 ± 1.3	1068.8 ± 1.3	1064.6 ± 1.3	1060.8 ± 1.3	1057.2 ± 1.3	6.26 ± 0.15	6.22 ± 0.15	6.19 ± 0.15	6.15 ± 0.14	5.93 ± 0.14
343.15 K	1066.9 ± 1.3	1062.3 ± 1.3	1057.9 ± 1.3	1054.1 ± 1.3	1050.4 ± 1.3	5.23 ± 0.12	5.21 ± 0.12	5.2 ± 0.12	5.1 ± 0.12	4.91 ± 0.12
353.15 K	1060.5 ± 1.3	1055.7 ± 1.3	1051.3 ± 1.3	1047.4 ± 1.3	1043.6 ± 1.3	4.44 ± 0.1	4.42 ± 0.1	4.38 ± 0.1	4.32 ± 0.1	4.15 ± 0.1

CCn1cc[n+](C)c1.N#C[C-](C#N)C#N [1-ethyl-3-methyl-1H-imidazolium tricyanomethanide]
[2]
Conditions	mass density [kg/m3]	viscosity [mPa·s]
293.15 K	1085.2 ± 1.4	17.72 ± 0.42
303.15 K	1078.1 ± 1.4	12.88 ± 0.3
313.15 K	1071.1 ± 1.3	9.8 ± 0.23
323.15 K	1064.1 ± 1.3	7.73 ± 0.18
333.15 K	1057.2 ± 1.3	5.93 ± 0.14
343.15 K	1050.4 ± 1.3	4.91 ± 0.12
353.15 K	1043.6 ± 1.3	4.15 ± 0.1
